The molecules below were run on NF-kB transcriptional activity in HEK-293-NF-kB-Luc cell line overexpressing MALT1 (assay: NF-kB reporter assay (luciferase, MALT1 stably overexpressed)). Conditions: Homo sapiens, 24 h, HEK-293-NF-kB-Luc cells stably overexpressing MALT1, 24 h treatment, Bright Glo luminescence; read-out: NF-kB inhibition IC50.
Format: cell-based
Method: The NF-⇐B reporter assay was performed to screen for MALT1 inhibition mediated reduction in the NF-⇐B transcriptional activity. For this purpose, MALT1 was stably overexpressed in HEK-293—NF-⇐B-Luc cell line. Cells were seeded in poly-D-lysine coated 96-well plates in a culture medium containing the selection markers (DMEM+10% FBS+50 |g/ml Hygromycin+500 |g/ml Geniticin) and allowed to adhere overnight. On the following day, cells were treated with various concentrations of test compounds for 24 h. After 24 h of treatment with test compounds, media was removed from each well and Bright Glo™ (Promega, USA) substrate was added and incubated for further 10 min at ambient temperature. Luminescence was measured for detection of NF-⇐B reporter activity. RLUs (Relative Luminescence Units) were directly proportional to the NF-⇐B activity. % inhibition of NF-⇐B activity was calculated relative to the samples containing media with 0.1% DMSO alone as per the following formula

| SMILES | IC50 |
| --- | --- |
| CCOC(C)c1c(NC(=O)Nc2ccc(-n3nccn3)c(Cl)c2)cnc2sc(C)nc12 (racemic) [Compound 161, 1-(3-Chloro-4-(2H-1,2,3-triazol-2-yl)phenyl)-3-(7-(1-ethoxyethyl)-2-methylthiazolo[5,4-b]pyridin-6-yl)urea] | 1 to 100 nM |
| COc1nc(-n2ccnn2)c(Cl)cc1NC(=O)Nc1cnc2sc(C)nc2c1C(C)OC (single isomer, unassigned) [Compound 91a, 1-(5-Chloro-2-methoxy-6-(1H-1,2,3-triazol-1-yl)pyridin-3-yl)-3-(7-(1-methoxyethyl)-2-methylthiazolo[5,4-b]pyridin-6-yl)urea] | 1 to 100 nM |
| COC(C)(c1c(NC(=O)Nc2cnc(-n3nccn3)c(C(F)(F)F)c2)cnc2sc(C)nc12)C1CC1 (single isomer, unassigned) [Compound 93a, 1-(6-(2H-1,2,3-triazol-2-yl)-5-(trifluoromethyl)pyridin-3-yl)-3-(7-(1-cyclopropyl-1-methoxyethyl)-2-methylthiazolo[5,4-b]pyridin-6-yl)urea] | 1 to 100 nM |
| COc1ccc(NC(=O)Nc2cnc3sc(C)nc3c2C(C)OC)cc1Cl (single isomer, unassigned) [Compound 118b, 1-(3-chloro-4-methoxyphenyl)-3-(7-(1-methoxyethyl)-2-methylthiazolo[5,4-b]pyridin-6-yl)urea] | 101 to 500 nM |
| COc1ncc(Cl)cc1NC(=O)Nc1cnc2sc(C)nc2c1C(C)OC (single isomer, unassigned) [Compound 120b, 1-(5-chloro-2-methoxypyridin-3-yl)-3-(7-(1-methoxyethyl)-2-methylthiazolo[5,4-b]pyridin-6-yl)urea] | 1 to 100 nM |
| COC(C)c1c(NC(=O)Nc2cnc(-n3ccnn3)c(Cl)c2)cnc2sc(C)nc12 (single isomer, unassigned) [Compound 123b, 1-(5-Chloro-6-(1H-1,2,3-triazol-1-yl)pyridin-3-yl)-3-(7-(1-methoxyethyl)-2-methylthiazolo[5,4-b]pyridin-6-yl)urea] | 1 to 100 nM |
| CCC(OC)c1c(NC(=O)Nc2cnc(OC)c(Cl)c2)cnc2sc(C)nc12 (single isomer, unassigned) [Compound 127a, 1-(5-Chloro-6-methoxypyridin-3-yl)-3-(7-(1-methoxypropyl)-2-methylthiazolo[5,4-b]pyridin-6-yl)urea] | 1 to 100 nM |
| COC(C)c1c(NC(=O)Nc2cncc(C#N)c2)cnc2sc(C)nc12 (single isomer, unassigned) [Compound 129b, 1-(5-Cyanopyridin-3-yl)-3-(7-(1-methoxyethyl)-2-methylthiazolo[5,4-b]pyridin-6-yl)urea] | 1 to 100 nM |
| COC(C)c1c(NC(=O)Nc2ccnc(C(F)(F)F)c2)cnc2sc(C)nc12 (single isomer, unassigned) [Compound 130b, 1-(7-(1-Methoxyethyl)-2-methylthiazolo[5,4-b]pyridin-6-yl)-3-(2-(trifluoromethyl)pyridin-4-yl)urea] | 1 to 100 nM |
| COc1cc(-n2ccnn2)c(Cl)cc1NC(=O)Nc1cnc2sc(C)nc2c1C(C)OC (single isomer, unassigned) [Compound 132b, 1-(5-Chloro-2-methoxy-4-(1H-1,2,3-triazol-1-yl)phenyl)-3-(7-(1-methoxyethyl)-2-methylthiazolo[5,4-b]pyridin-6-yl)urea] | 1 to 100 nM |
| COC(C)c1c(NC(=O)Nc2cc(C(F)(F)F)cn(C)c2=O)cnc2sc(C)nc12 (single isomer, unassigned) [Compound 133b, 1-(7-(1-methoxyethyl)-2-methylthiazolo[5,4-b]pyridin-6-yl)-3-(1-methyl-2-oxo-5-(trifluoromethyl)-1,2-dihydropyridin-3-yl)urea] | 501 to 1500 nM |
| COc1ncc(NC(=O)Nc2cnc3sc(C)nc3c2C2CCCO2)cc1Cl (single isomer, unassigned) [Compound 135a, 1-(5-Chloro-6-methoxypyridin-3-yl)-3-(2-methyl-7-(tetrahydrofuran-2-yl)thiazolo[5,4-b]pyridin-6-yl)urea] | 1 to 100 nM |
| Cc1nc2c(C3CCCO3)c(NC(=O)Nc3ccc(-n4nccn4)c(Cl)c3)cnc2s1 (single isomer, unassigned) [Compound 137a, 1-(3-Chloro-4-(2H-1,2,3-triazol-2-yl)phenyl)-3-(2-methyl-7-(tetrahydrofuran-2-yl)thiazolo[5,4-b]pyridin-6-yl)urea] | 1 to 100 nM |
| Cc1nc2c(C3CCCCO3)c(NC(=O)Nc3cnc(-n4nccn4)c(Cl)c3)cnc2s1 (single isomer, unassigned) [Compound 140b, 1-(5-Chloro-6-(2H-1,2,3-triazol-2-yl)pyridin-3-yl)-3-(2-methyl-7-(tetra hydro-2H-pyran-2-yl)thiazolo[5,4-b]pyridin-6-yl)urea] | 101 to 500 nM |
| COC(C)c1c(NC(=O)Nc2cnc(-n3ccnn3)c(C(F)(F)F)c2)cnc2sc(C)nc12 (single isomer, unassigned) [Compound 141a, 1-(6-(1H-1,2,3-Triazol-1-yl)-5-(trifluoromethyl)pyridin-3-yl)-3-(7-(1-methoxyethyl)-2-methylthiazolo[5,4-b]pyridin-6-yl)urea] | 1 to 100 nM |
| CCC(OC)c1c(NC(=O)Nc2cnc(-n3nccn3)c(C(F)(F)F)c2)cnc2sc(C)nc12 (single isomer, unassigned) [Compound 146a, 1-(6-(2H-1,2,3-Triazol-2-yl)-5-(trifluoromethyl)pyridin-3-yl)-3-(7-(1-methoxypropyl)-2-methylthiazolo[5,4-b]pyridin-6-yl)urea] | 1 to 100 nM |
| COC(C)c1c(NC(=O)Nc2cnc(-c3ncc(C)o3)c(Cl)c2)cnc2sc(C)nc12 (single isomer, unassigned) [Compound 148b, 1-(5-Chloro-6-(5-methyloxazol-2-yl)pyridin-3-yl)-3-(7-(1-methoxyethyl)-2-methylthiazolo[5,4-b]pyridin-6-yl)urea] | 1 to 100 nM |
| COC(C)c1c(NC(=O)Nc2cnc(OC(F)F)c(Cl)c2)cnc2sc(C)nc12 (single isomer, unassigned) [Compound 149a, 1-(5-Chloro-6-(difluoromethoxy)pyridin-3-yl)-3-(7-(1-methoxyethyl)-2-methylthiazolo[5,4-b]pyridin-6-yl)urea] | 1 to 100 nM |
| COC(c1c(NC(=O)Nc2cnc(-n3nccn3)c(Cl)c2)cnc2sc(C)nc12)C1CC1 (single isomer, unassigned) [Compound 154a, 1-(5-Chloro-6-(2H-1,2,3-triazol-2-yl)pyridin-3-yl)-3-(7-(cyclopropyl(methoxy)methyl)-2-methylthiazolo[5,4-b]pyridin-6-yl)urea] | 1 to 100 nM |
| COc1nc(-n2nccn2)c(Cl)cc1NC(=O)Nc1cnc2sc(C)nc2c1C(OC)C1CC1 (single isomer, unassigned) [Compound 156a, 1-(5-Chloro-2-methoxy-6-(2H-1,2,3-triazol-2-yl)pyridin-3-yl)-3-(7-(cyclopropyl(methoxy)methyl)-2-methylthiazolo[5,4-b]pyridin-6-yl)urea] | 1 to 100 nM |
| CCC(C)c1c(NC(=O)Nc2cnc(-n3nccn3)c(Cl)c2)cnc2sc(C)nc12 (single isomer, unassigned) [Compound 157a, 1-(7-(sec-Butyl)-2-methylthiazolo[5,4-b]pyridin-6-yl)-3-(5-chloro-6-(2H-1,2,3-triazol-2-yl)pyridin-3-yl)urea] | 1 to 100 nM |
| CCOC(C)c1c(NC(=O)Nc2cc(Cl)c(-n3nccn3)nc2OC)cnc2sc(C)nc12 (single isomer, unassigned) [Compound 166b, 1-(5-Chloro-2-methoxy-6-(2H-1,2,3-triazol-2-yl)pyridin-3-yl)-3-(7-(1-ethoxyethyl)-2-methylthiazolo[5,4-b]pyridin-6-yl)urea] | 1 to 100 nM |
| COC(C)c1c(NC(=O)Nc2ccc(-c3ncccn3)c(Cl)c2)cnc2sc(C)nc12 (single isomer, unassigned) [Compound 202, (S) or (R)-1-(3-Chloro-4-(pyrimidin-2-yl)phenyl)-3-(7-(1-methoxyethyl)-2-methylthiazolo[5,4-b]pyridin-6-yl)urea] | 1 to 100 nM |
| COC(C)c1c(NC(=O)Nc2ccc(-n3nccn3)c(C(F)F)c2)cnc2sc(C)nc12 (single isomer, unassigned) [Compound 207a, (R) or (S)-1-(3-(Difluoromethyl)-4-(2H-1,2,3-triazol-2-yl)phenyl)-3-(7-(1-methoxyethyl)-2-methylthiazolo[5,4-b]pyridin-6-yl)urea] | 1 to 100 nM |
| CCC(c1c(NC(=O)Nc2cnc(-n3nccn3)c(Cl)c2)cnc2sc(C)nc12)N(C)C (single isomer, unassigned) [Compound 227b, 1-(5-Chloro-6-(2H-1,2,3-triazol-2-yl)pyridin-3-yl)-3-(7-(1-(dimethylamino)propyl)-2-methylthiazolo[5,4-b]pyridin-6-yl)urea] | 1 to 100 nM |
| Cc1nc2c(C3CC3)c(NC(=O)Nc3ccnc(C#N)c3)cnc2s1 [Compound 12, 1-(2-Cyanopyridin-4-yl)-3-(7-cyclopropyl-2-methylthiazolo[5,4-b]pyridin-6-yl)urea] | 501 to 1500 nM |
| COCC(C)N(C)c1c(NC(=O)Nc2cnc(-n3nccn3)c(Cl)c2)cnc2sc(C)nc12 (stereo not shown) [Compound 53a, 1-(5-Chloro-6-(2H-1,2,3-triazol-2-yl)pyridin-3-yl)-3-(7-((1-methoxypropan-2-yl)(methyl)amino)-2-methylthiazolo[5,4-b]pyridin-6-yl)urea] | 1 to 100 nM |
| COc1ncc(NC(=O)Nc2cnc3sc(C)nc3c2C2=CCOCC2)cc1Cl [Compound 58, 1-(5-Chloro-6-methoxypyridin-3-yl)-3-(7-(3,6-dihydro-2H-pyran-4-yl)-2-methylthiazolo[5,4-b]pyridin-6-yl)urea] | 501 to 1500 nM |

From patent US20190275012A9, “SUBSTITUTED THIAZOLO-PYRIDINE COMPOUNDS AS MALT1 INHIBITORS” (Lupin Limited, priority 2016, published 2019)
